Experimental data as given in patent US6808909B2, “Thermostable phytase with 2.1 Å . . . crystal structure” (Korea Research Institute of Bioscience and Biotechnology, priority 2000, dated 2004).

Target: T1, phytase derived from B. amyloliquefaciens DS-11 (Bacillus sp., UniProt O66037)
T1 construct: made in house; host or cells: Bacillus subtilis DB104/pJPK
Experiment: Activity of the phytase on phytate and myo-inositol monophosphate substrates
Format: biochemical
Details: 2 mM substrate, 37° C. for 15 min, 20 mM Tris/HCl (pH7.0) buffer; relative to phytate = 100
Protocol: The activities of the phytase derived from B. amyloliquefaciens DS11 were measured on its 2 mM substrates of myo-inositol, hexaphosphate, mio-inositol 1-monophosphate, mio-inositol 2-monophosphate, myo-inositol 4-monophosphate, after incubating at 37° C. for 15 min in a 20 mM Tris/HCl (pH7.0) buffer.

T1 sequence (O66037 31-383): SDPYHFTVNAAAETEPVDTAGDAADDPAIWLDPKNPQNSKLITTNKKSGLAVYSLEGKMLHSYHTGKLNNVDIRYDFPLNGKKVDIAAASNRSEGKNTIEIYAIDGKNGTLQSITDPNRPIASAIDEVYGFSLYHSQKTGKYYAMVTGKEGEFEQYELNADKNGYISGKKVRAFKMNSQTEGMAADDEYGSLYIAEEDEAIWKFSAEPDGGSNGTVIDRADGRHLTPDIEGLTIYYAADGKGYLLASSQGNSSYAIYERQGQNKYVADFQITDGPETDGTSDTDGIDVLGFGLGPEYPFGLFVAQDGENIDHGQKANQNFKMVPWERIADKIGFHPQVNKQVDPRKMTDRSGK

| SMILES | Relative Enzyme Activity (%) |
| --- | --- |
| O=P(O)(O)OC1[C@@H](O)[C@@H](O)C(O)[C@H](O)[C@H]1O (stereo partly shown) [4′-monophosphoinositol, myo-inositol 4-monophosphate] | 40% |
| O=P(O)(O)OC1[C@@H](O)[C@H](O)C(O)[C@H](O)[C@H]1O (stereo partly shown) [2′-monophosphoinositol, mio-inositol 2-monophosphate] | 28% |
| O=P(O)(O)O[C@H]1[C@H](OP(=O)(O)O)[C@@H](OP(=O)(O)O)[C@H](OP(=O)(O)O)[C@@H](OP(=O)(O)O)[C@H]1OP(=O)(O)O [Phytate, myo-inositol, hexaphosphate] | 100% |
| O=P(O)(O)OC1[C@H](O)[C@H](O)C(O)[C@H](O)[C@H]1O (stereo partly shown) [1′-monophosphoinositol, mio-inositol 1-monophosphate] | 27% |
